Data from patent US20130303562A1, “CHEMICAL AND RNAI SUPPRESSORS OF NEUROTOXICITY IN HUNTINGTON'S DISEASE” (priority 2010, published 2013).
“Also recorded” adds a separate entry of the source. Read-outs that look alike come from different tables or passages of the source.

Tests used:
[1] = system: Htt138Q aggregate formation; assay: Htt-Q138 aggregation-inhibition screening of small molecules in Drosophila primary neural cultures (automated microscopy); type: cell-based; settings: for Htt-Q138 aggregate formation (effect in words): range of concentrations (56 μM, 5.6 μM); for Htt-Q138 aggregation (effect in words): Htt-Q138 primary neural cultures
Procedure: Primary Cell Culture. Elav^c155-GAL4 virgins were collected en-masse and crossed to either UAS-Htt-Q138-mRFP^1, UAS-mCD8-GFP or UAS-HttQ15-mRFP^1, UAS-mCD8-GFP males to generate embryos for primary culture preparation. Neuroblasts were isolated as described (Sepp et al., 2008).
Compound screening: Primary cultures were re-suspended directly in Shields and Sang M3 media (Sigma) supplemented with 10 U/mL penicillin, 10 μg/mL streptomycin, 200 ng/mL insulin, and 5% fetal bovine serum. […] of compounds from arrayed small-molecule libraries (NINDS Custom Collection 2, Prestwick) Collection, BIOMOL2 ICCB-Longwood Known Bioactives High Concentration, various concentration from 1-15 mM in DMSO) were applied to 50 μL of cultures 24 hours after plating on optical bottom 384-well plates (Corning 3712). The neuroblast density was 18,500 cells/well. The primary screen was carried out in duplicate and hits were validated with 12 additional replicate wells.
(§1) Microscopy: For high-content screening mature 7-day old cultures were imaged with an ImageXpress^MICRO robotic microscope (Molecular Devices, Sunnyvale, Calif.) using a 10× objective and FITC/Cy3 filter sets. Images were 1392×1040 pixels, or 897×670 micrometers. Laser-based autofocusing was used to locate plate bottoms, and then image-based focusing used to resolve fluorescently labeled neurons over a 48 μm range. The GFP and mRFP channels were imaged in the same focal plane, with exposure times of 850 and 400 ms respectively. Three sites were imaged per well for each treatment group, and the screen was done in duplicate. For confocal microscopy of primary cultures, neuroblasts were plated on poly-L-lysine coated chambered cover slips (LabTekII, 0.8 cm^2/well) at 18,300 cells/well in 50 μL volume. Small molecules were added to cultures 24 hours after plating, incubated for 7 days, and then imaged with a Leica TCS-SP2 confocal LSM microscope.
(§2) Digital Image Analysis of High Content Screening Data Sets: Neuronal morphological analysis and Htt aggregate quantification for automated microscopy images was performed as previously described (Schulte et al., Wu et al.). In brief, Htt-Q138 aggregates were quantified as the total number of pixels/image with an intensity higher than an empirically set threshold. Statistical analysis was conducted using a two sample t-test. To quantify neuronal morphologies, cell body clusters (neuromeres) and neurites were extracted from images using our custom algorithms (Wu et al.). […] Absolute counts of neuromeres/bin were tabulated for all images. Neurite segment lengths were similarly clustered into three groups (short, medium, and long) using the K-means method and then quantified. Cell cluster and neurite counts were converted into percentages to control for any variation in cell number between wells arising from pipetting error. Mean neuromere area and neurite length for each image were also calculated to give a total of eight morphological metrics for image morphology quantification. For statistical analysis, p-values for each morphological feature were calculated using a two sample t-test (e.g. small neuromere feature of Htt-Q138 drug-treated cultures versus small neuromere feature of Htt-Q15 DMSO cultures). The resultant morphological p-values for individual features were then integrated into a single p-value using the Fisher method (Fisher 1932) defined by the equation χ^2=−2Σi=1^k loge(pi), where k represents independent tests, pi is the p-value of the i-th feature. The combined statistic has a χ^2 distribution with 2k degrees of freedom under the joint null hypothesis. This method works well in cases where the evidence against the null-hypothesis is spread across different features. Excluded from analysis were compound-treated wells with <6 images, out-of-focus images, or images that lacked cell profiles altogether.

[2] = system: HD larvae (Elav^c155-GAL4; UAS-Htt-Q138/+); assay: In vivo rescue: viability of HD larvae after 5-day drug dosing in liquid culture; design: species or system Drosophila; settings: larvae reared in liquid culture, 5-day dosing, compared to DMSO-treated controls
Procedure: In vivo Rescue studies: For small molecule in vivo rescue studies, Elav^c155; UAS-Htt-Q138-mRFP^1, UAS-mCD8-GFP/+1st instar larvae were collected en-masse and dispensed into liquid yeast media (10 larvae/well) containing therapeutic agents at three different concentrations as described in the results (n=8 replicas/concentration). Cultures were reared at 21° C. and larval viability was assessed after 5 days and the mean number of living Htt138Q larvae (i.e. GFP^+, Htt138QmRFP^+, and mobile) was tabulated, and expressed as a percentage of total larvae/well. For genetic rescue studies with lkb1, two Htt138Q strains were utilized: a strong expressing line, UAS-Htt138QmRFP^1 which is pharate lethal when crossed to Elav^c155, and a weaker expressing line, UAS-Htt138QmRFP^2 which survives to adulthood and is viable for a number of weeks. Using the strong line, pharate lethality at 25° C. was calculated after lkb1 (lkb1^4B1-11 and lkb1^4A4-2 alleles) was introduced into an Elav^c155, UAS-Htt/+background. Lkb1^4B1-11 is a premature truncation allele (Q98>Stop), and lkb1^4A4-2 is an EMS null allele (589 b.p. deletion removing 150 b.p. of the 5′ UTR, the start codon and the beginning of the open reading frame). For Top1 in vivo analysis, Elav^c155, Top^112 recombinants were generated and crossed to UAS-Htt138QmRFP^1.
To further examine the RNAi/small molecule screen hits, we assayed in vivo efficacy by testing their ability to rescue lethality in our Drosophila HD model. […] Specific inhibitors of Lkb1 were not available for in vivo testing.

[3] = system: Htt-Q138 expressing primary neural cultures; assay: In vitro validation of screen hits by confocal microscopy of primary cultures on glass coverslips; type: cell-based, Drosophila; settings: for Aggregate formation (confocal): 56 μM, Htt-Q138 expressing cultures
Excerpt: FIG. 4. In vitro validation of small molecule screen hits. Confocal microscopy images of primary cultures plated on glass coverslips and treated with either DMSO (A,B) or test compounds (C,D). […] HttQ15 is soluble and fills most neurite processes. […] (E) Quantification of altered Htt138Q distribution following Camptothecin treatment.
as §1

[4] = system: Htt-Q138 expressing Drosophila primary neural cultures; assay: Morphological analysis of small-molecule treated Htt-Q138 primary neural cultures versus Htt-Q15 controls; type: cell-based; settings: for Morphology profiles of Q138 expressing neurons (effect in words): Htt-Q138 primary neural cultures, compared with Htt-Q15 controls
Procedure: Primary Cell Culture. Elav^c155-GAL4 virgins were collected en-masse and crossed to either UAS-Htt-Q138-mRFP^1, UAS-mCD8-GFP or UAS-HttQ15-mRFP^1, UAS-mCD8-GFP males to generate embryos for primary culture preparation.
Compound screening: Primary cultures were re-suspended directly in Shields and Sang M3 media (Sigma) supplemented with 10 U/mL penicillin, 10 μg/mL streptomycin, 200 ng/mL insulin, and 5% fetal bovine serum. […] The neuroblast density was 18,500 cells/well. The primary screen was carried out in duplicate and hits were validated with 12 additional replicate wells.
as §1, with “Images were 1392×1040 pixels, or 897×670 micrometers.” left out
as §2, with “The resultant morphological p-values for individual features were then integrated into a single p-value using the Fisher method (Fisher 1932) defined by the equation χ^2=−2Σi=1^k loge(pi), where k represents independent tests, pi is the p-value of the i-th feature.” left out

[5] = Solubility / precipitation in cultures; type: physicochemical; settings: liquid cultures
NP-3 mouse HD model = settings: cited from earlier work

SMILES: CCC1(O)C(=O)OCc2c1cc1n(c2=O)Cc2cc3cc(O)ccc3nc2-1 (stereo not shown) [10-OH-Camptothecin]
- Htt-Q138 aggregate formation (effect in words) [1]: rescue aggregate formation
- Viability of Htt-Q138 expressing larvae / rescue of Htt-Q138 lethality ([2]; listed as 10-Hydroxycamptothecin): increased larval longevity in vivo, but to a lesser extent than Rapamycin; also recorded: more efficacious than Camptothecin
- Aggregate formation (confocal) [3]: reduces aggregate formation
- Dystrophic morphology profiles (effect in words) [4]: partially reverting dystrophic morphology profiles
- Morphology profiles of Q138 expressing neurons (effect in words) [4]: Rescue of Htt-Q138 mutant morphology

SMILES: O=C(Nc1ccc(Br)cc1)c1cccc(S(=O)(=O)Nc2ccc(Br)cc2)c1 [C2-8]
- Htt-Q138 aggregation (effect in words) [1]: reduced Htt-Q138 aggregation
- Neurotoxic properties / morphological defects in cultures [4]: reduced axon outgrowth, neuromere size, and suppressed GFP expression
- Morphology profiles of Q138 expressing neurons (effect in words) [4]: none reverted the morphology profiles of Q138 expressing neurons towards normal

SMILES: CC[C@@]1(O)C(=O)OCc2c1cc1n(c2=O)Cc2cc3ccccc3nc2-1 [Camptothecin]
- Htt-Q138 aggregate formation (effect in words) [1]: rescue aggregate formation
- Viability of Htt-Q138 expressing larvae / rescue of Htt-Q138 lethality [2]: increased larval longevity in vivo, but to a lesser extent than Rapamycin
- Precipitation when added to cultures [5]: readily precipitates when added to cultures
- Aggregate formation (confocal) [3]: reduces aggregate formation
- Number of Htt138Q pixels/neuronal area (Htt-RFP pixels/neuromere and neurite GFP pixels) ([3]; mutant cultures, p<0.05, n=4): increase
- Neurotoxic properties / morphological defects in cultures ([4]; primary neural cultures): did not observe morphological defects
- Dystrophic morphology profiles (effect in words) ([4]; range of concentrations (56 μM, 5.6 μM)): partially reverting dystrophic morphology profiles

SMILES: O=C1Nc2ccc(I)cc2/C1=C/c1cc(Br)c(O)c(Br)c1 [GW5074]
- Htt-Q138 aggregation (effect in words) [1]: reduced Htt-Q138 aggregation; also recorded: inhibited mutant Hu aggregate formation
- Striatal degeneration (NP-3 mouse HD model): reduced striatal degeneration
- Neurotoxic properties / morphological defects in cultures [4]: reduced axon outgrowth, neuromere size, and suppressed GFP expression
- Morphology profiles of Q138 expressing neurons (effect in words) [4]: none reverted the morphology profiles of Q138 expressing neurons towards normal

SMILES: C=C1[C@@H](O)[C@@H]2O[C@]3(CC[C@H](/C=C/[C@@H](C)[C@@H]4CC(C)=C[C@@]5(O[C@H](C[C@@](C)(O)C(=O)O)CC[C@H]5O)O4)O3)CC[C@H]2O[C@@H]1[C@@H](O)C[C@H](C)[C@H]1O[C@@]2(CCCCO2)CC[C@H]1C [Okadaic acid]
- Htt-Q138 aggregation (effect in words) [1]: suppress Htt-Q138 aggregation
- Morphology profiles of Q138 expressing neurons (effect in words) [4]: exacerbated the mutant Htt-Q138 mutant morphology

SMILES: C[C@@H]1C[C@H]2O[C@@H]2/C=C\C=C\C(=O)Cc2c(Cl)c(O)cc(O)c2C(=O)O1 [Radicicol]
- Htt-Q138 aggregation (effect in words) [1]: reduced Htt-Q138 aggregation
- Neurotoxic properties / morphological defects in cultures [4]: reduced axon outgrowth, neuromere size, and suppressed GFP expression
- Morphology profiles of Q138 expressing neurons (effect in words) [4]: none reverted the morphology profiles of Q138 expressing neurons towards normal

SMILES: CO[C@H]1C[C@@H]2CC[C@@H](C)[C@@](O)(O2)C(=O)C(=O)N2CCCC[C@H]2C(=O)O[C@H]([C@H](C)C[C@@H]2CC[C@@H](O)[C@H](OC)C2)CC(=O)[C@H](C)/C=C(\C)[C@@H](O)[C@@H](OC)C(=O)[C@H](C)C[C@H](C)/C=C/C=C/C=C/1C [Rapamycin]
- Neurotoxic properties / morphological defects in cultures ([4]; primary neural cultures): reduced axon outgrowth, neuromere size, and suppressed GFP expression
